In patent US11306081B2, “Phenylacetamides as inhibitors of rock” (BRISTOL-MYERS SQUIBB COMPANY, priority 2017, dated 2022):
Read-outs that look alike come from different tables or passages of the source.

Legend:
[1] = system: neointimal formation in rats; conditions: cited from earlier work
[2] = system: spontaneously hypertensive rat, renal hypertensive rat and deoxycortisone acetate salt hypertensive rat models; conditions: cited from earlier work
Dahl salt-sensitive rats = conditions: rat, in vivo; cited from earlier work
[3] = system: porcine model of IL-1 beta-induced coronary stenosis; conditions: long term treatment; cited from earlier work
rat stroke model = conditions: in vivo; cited from earlier work
ROCK2 = ROCK2 (Homo sapiens (Human), UniProt O75116); test: ROCK assay (LABCHIP 3000 peptide phosphorylation assay); assay type: biochemical; conditions: 5 μM ATP, 1.5 μM peptide substrate, dose-response
Method in brief: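 Rho kinase variants in 20 mM HEPES pH 7.5, 20 mM MgCl2, 0.015% Brij-35, 4 mM DTT, 5 μM ATP, 1.5 μM FITC-AHA-AKRRRLSSLRA-OH peptide; DMSO <2%. EDTA-stopped; phosphorylated/non-phosphorylated peptide separated by microfluidic LabChip readout. Dose-response inhibition curve-fitted to give IC50.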

ROCK2, sequence (O75116 whole entry, species assumed): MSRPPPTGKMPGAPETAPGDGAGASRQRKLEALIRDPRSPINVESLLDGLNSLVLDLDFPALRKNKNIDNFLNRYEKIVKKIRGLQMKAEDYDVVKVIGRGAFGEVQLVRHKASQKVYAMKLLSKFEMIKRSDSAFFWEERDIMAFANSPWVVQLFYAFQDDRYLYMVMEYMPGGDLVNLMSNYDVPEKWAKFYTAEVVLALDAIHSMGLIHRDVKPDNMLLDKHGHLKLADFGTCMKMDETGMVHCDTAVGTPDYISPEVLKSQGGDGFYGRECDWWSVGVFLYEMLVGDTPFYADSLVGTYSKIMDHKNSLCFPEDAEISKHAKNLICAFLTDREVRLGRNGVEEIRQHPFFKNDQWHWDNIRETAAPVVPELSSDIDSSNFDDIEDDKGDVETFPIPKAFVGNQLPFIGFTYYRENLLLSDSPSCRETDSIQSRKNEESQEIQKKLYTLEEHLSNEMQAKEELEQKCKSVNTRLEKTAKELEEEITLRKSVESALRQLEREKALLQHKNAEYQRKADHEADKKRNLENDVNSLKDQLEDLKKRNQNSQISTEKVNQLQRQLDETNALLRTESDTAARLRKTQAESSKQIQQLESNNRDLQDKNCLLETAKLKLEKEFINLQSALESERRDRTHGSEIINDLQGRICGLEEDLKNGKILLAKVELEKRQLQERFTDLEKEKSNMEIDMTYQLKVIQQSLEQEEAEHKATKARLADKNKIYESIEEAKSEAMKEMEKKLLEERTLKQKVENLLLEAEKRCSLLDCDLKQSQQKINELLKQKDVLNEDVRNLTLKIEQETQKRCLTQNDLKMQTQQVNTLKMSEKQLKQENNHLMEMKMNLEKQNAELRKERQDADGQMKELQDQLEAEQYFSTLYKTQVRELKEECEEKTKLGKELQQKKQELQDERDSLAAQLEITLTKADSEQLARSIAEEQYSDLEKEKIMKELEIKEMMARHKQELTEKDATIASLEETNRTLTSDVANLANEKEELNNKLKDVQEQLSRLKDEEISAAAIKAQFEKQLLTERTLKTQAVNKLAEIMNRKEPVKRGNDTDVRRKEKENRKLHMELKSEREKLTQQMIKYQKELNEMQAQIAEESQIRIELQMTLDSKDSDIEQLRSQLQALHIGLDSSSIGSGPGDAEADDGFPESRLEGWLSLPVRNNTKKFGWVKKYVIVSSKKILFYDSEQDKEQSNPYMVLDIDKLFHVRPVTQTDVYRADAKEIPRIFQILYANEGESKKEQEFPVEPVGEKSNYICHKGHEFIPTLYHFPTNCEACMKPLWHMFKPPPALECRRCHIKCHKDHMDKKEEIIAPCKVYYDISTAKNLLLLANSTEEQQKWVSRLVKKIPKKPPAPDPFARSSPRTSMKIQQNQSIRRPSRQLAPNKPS

| Compound | IC50 (ROCK2) [nM] | other results |
| --- | --- | --- |
| C[C@@H](N)[C@H]1CC[C@H](C(=O)Nc2ccncc2)CC1 [Example Y-27632, Y-27632] |  | neointimal formation [1]: inhibited neointimal formation; blood pressure ([2]; control rats): only a minor effect on blood pressure; blood pressure ([2]; three rat models of hypertension): significantly decrease blood pressure; ventricular hypertrophy, fibrosis and function (Dahl salt-sensitive rats): improve ventricular hypertrophy, fibrosis and function |
| O=S(=O)(c1cccc2cnccc12)N1CCCNCC1 [fasudil] |  | coronary constrictive remodeling [3]: promote a regression of coronary constrictive remodeling; coronary stenosis [3]: progressively reduce coronary stenosis; infarct size and neurologic deficit (rat stroke model): reduce both the infarct size and neurologic deficit |
| Cc1sc(NC(=O)Cc2ccc(Oc3ncccc3C(N)=O)c(F)c2)nc1-c1cccc(F)n1 [Example 013, 2-(2-fluoro-4-(2-((4-(6-fluoropyridin-2-yl)-5-methylthiazol-2-yl)amino)-2-oxoethyl)phenoxy)nicotinamide] | 21 |  |
| COc1ccc2c(c1)CCc1sc(NC(=O)C(C)c3ccc(Oc4ncccc4C(N)=O)cc3)nc1-2 (stereo not shown) [Example 106, 2-(4-(1-((7-methoxy-4,5-dihydronaphtho[1,2-d]thiazol-2-yl)amino)-1-oxopropan-2-yl)phenoxy)nicotinamide] | 262 |  |
| CC(C)(O)COc1ccc2sc(NC(=O)Cc3ccc(Oc4ncccc4C(N)=O)c(F)c3)nc2c1 [Example 003, 2-(2-fluoro-4-(2-((5-(2-hydroxy-2-methylpropoxy)benzo[d]thiazol-2-yl)amino)-2-oxoethyl)phenoxy)nicotinamide] | 20 |  |
| CC(C)(O)COc1ccc2sc(NC(=O)Cc3ccc(Oc4ncccc4C(N)=O)c(Cl)c3)nc2c1 [Example 112, 2-(2-chloro-4-(2-((5-(2-hydroxy-2-methylpropoxy)benzo[d]thiazol-2-yl)amino)-2-oxoethyl)phenoxy)nicotinamide] | 6 |  |
| NC(=O)c1cccnc1Oc1ccc(CC(=O)Nc2nc3cc(C(F)(F)F)ccn3n2)cc1F [Example 132, 2-(2-fluoro-4-(2-oxo-2-((7-(trifluoro-methyl)-[1,2,4]-triazolo[1,5-a]-pyridin-2-yl)amino)-ethyl)phenoxy)-nicotinamide] | 129 |  |
| Cn1cc(-c2ccc3c(c2)nc(NC(=O)Cc2ccc(Oc4ncccc4C(N)=O)c(F)c2)n3CC(F)(F)F)cn1 [Example 038, 2-(2-fluoro-4-(2-((5-(1-methyl-1H-pyrazol-4-yl)-1-(2,2,2-trifluoroethyl)-1H-benzo[d]imidazol-2-yl)amino)-2-oxoethyl)phenoxy)nico-tinamide] | 30 |  |
| NC(=O)c1cccnc1Oc1ccc(CC(=O)Nc2nc3cccc(F)c3n2CC2CC2)cc1F [Example 164, 2-(4-(2-((1-(cyclopropyl-methyl)-7-fluoro-1H-benzo[d]-imidazol-2-yl)-amino)-2-oxo-ethyl)-2-fluoro-phenoxy)nicotin-amide] | 12 |  |
| Cn1cc(-c2ccc3sc(NC(=O)Cc4ccc(Oc5ncccc5C(N)=O)c(F)c4)nc3c2)cn1 [Example 035, 2-(2-fluoro-4-(2-((5-(1-methyl-1H-pyrazol-4-yl)benzo[d]thiazol-2-yl)amino)-2-oxoethyl)phenoxy)nico-tinamide] | 10 |  |
| NC(=O)c1cccnc1Oc1ccc(CC(=O)Nc2nc3c(OC(F)F)cccn3n2)cc1F [Example 139, 2-(4-(2-((8-(difluoromethoxy)-[1,2,4]triazolo[1,5-a]pyridin-2-yl)amino)-2-oxoethyl)-2-fluorophenoxy)nicotinamide] | 25 |  |
| NC(=O)c1cccnc1Oc1ccc(CC(=O)Nc2nc3ccc(C(F)(F)F)cc3n2CC2CC2)cc1F [Example 175, 2-(4-(2-((1-(cyclopropyl-methyl)-6-(trifluoro-methyl)-1H-benzo[d]-imidazol-2-yl)amino)-2-oxoethyl)-2-fluorophenoxy)-nicotinamide] | 44 |  |
| Cn1nccc1-c1ccc2nc(NC(=O)Cc3ccc(Oc4ncccc4C(N)=O)c(F)c3)nn2c1 [Example 138, 2-(2-fluoro-4-(2-((6-(1-methyl-1H-pyrazol-5-yl)-[1,2,4]triazolo[1,5-a]pyridin-2-yl)amino)-2-oxoethyl)phenoxy)nicotinamide] | 39 |  |
| COC(=O)Nc1cc(-c2nc(NC(=O)Cc3ccc(Oc4ncccc4C(N)=O)c(F)c3)sc2C)ccn1 [Example 019, methyl (4-(2-(2-(4-((3-carbamoylpyridin-2-yl)oxy)-3-fluorophenyl)acetamido)-5-methylthiazol-4-yl)pyridin-2-yl)carbamate] | 49 |  |
